Results as given in ChEMBL document CHEMBL4834480, “Discovery of 3,5-Dimethyl-4-Sulfonyl-1H-Pyrrole-Based Myeloid Cell Leukemia 1 Inhibitors with High Affinity, Selectivity, and Oral Bioavailability” (J Med Chem, 2021).

Tests used:
[1] = target: T1, Induced myeloid leukemia cell differentiation protein Mcl-1 (Homo sapiens, UniProt Q07820); assay: Inhibition of FITC-labeled Bak BH3 peptide binding to GST-tagged MCL1 (171 to 327 residues) (unknown origin) expressed in Escherichia coli BL21 (DE3) incubated for 30 mins fluorescence polarization-based competitive binding assay
T1 sequence (Q07820 whole entry, the tested form may be a part): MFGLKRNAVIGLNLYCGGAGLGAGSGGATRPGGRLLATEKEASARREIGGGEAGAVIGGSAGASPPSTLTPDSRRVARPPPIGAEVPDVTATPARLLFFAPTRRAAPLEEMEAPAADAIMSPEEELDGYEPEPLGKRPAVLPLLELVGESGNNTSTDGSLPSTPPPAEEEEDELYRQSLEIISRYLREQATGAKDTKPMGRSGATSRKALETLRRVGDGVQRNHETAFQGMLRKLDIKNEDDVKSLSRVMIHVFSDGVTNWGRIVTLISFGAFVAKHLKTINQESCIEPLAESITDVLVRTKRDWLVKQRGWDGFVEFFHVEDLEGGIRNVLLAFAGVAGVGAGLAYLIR

[2] = target: T1, Induced myeloid leukemia cell differentiation protein Mcl-1; assay: Inhibition of FITC-labeled Bak BH3 peptide binding to GST-tagged MCL1 (171 to 327 residues) (unknown origin) expressed in Escherichia coli BL21 (DE3) at 30 uM incubated for 30 mins fluorescence polarization-based competitive binding assay relative to control
[3] = test system: NCI-H23; assay: Antiproliferative activity against human NCI-H23 cells assessed as decrease in cell viability measured after 72 hrs by MTT assay; format: functional, cell-based; details: NCI-H23, 72 h
[4] = target: Bcl-2-like protein 1 (Homo sapiens, UniProt Q07817); assay: Inhibition of BCL-XL(unknown origin) at 10 uM incubated for 120 mins by TR-FRET assay relative to control
Chain of Bcl-2-like protein 1 (Q07817 whole entry): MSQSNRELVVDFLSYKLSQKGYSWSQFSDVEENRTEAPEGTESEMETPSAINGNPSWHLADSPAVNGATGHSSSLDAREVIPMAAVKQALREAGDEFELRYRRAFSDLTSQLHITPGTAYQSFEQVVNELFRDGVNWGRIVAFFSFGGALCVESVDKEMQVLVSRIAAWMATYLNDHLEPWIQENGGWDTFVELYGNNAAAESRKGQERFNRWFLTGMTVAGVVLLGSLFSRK

[5] = test system: NCI-H929; assay: Antiproliferative activity against human NCI-H929 cells assessed as decrease in cell viability measured after 72 hrs by MTT assay; format: functional, cell-based; details: NCI-H929, 72 h
[6] = test system: SK-BR-3; assay: Antiproliferative activity against human SK-BR-3 cells assessed as decrease in cell viability measured after 72 hrs by MTT assay; format: functional, cell-based; details: SK-BR-3, 72 h
[7] = test system: K562; assay: Antiproliferative activity against human K562 cells assessed as decrease in cell viability measured after 72 hrs by MTT assay; format: functional, cell-based; details: K562, 72 h
[8] = target: Apoptosis regulator Bcl-2 (Homo sapiens, UniProt P10415); assay: Inhibition of FITC-labeled Bak BH3 peptide binding to GST-tagged BCL2 (1 to 205 residues) (unknown origin) expressed in Escherichia coli BL21 (DE3) at 10 uM incubated for 30 mins fluorescence polarization-based competitive binding assay relative to control
Chain of Apoptosis regulator Bcl-2 (P10415 whole entry, the tested form may be a part): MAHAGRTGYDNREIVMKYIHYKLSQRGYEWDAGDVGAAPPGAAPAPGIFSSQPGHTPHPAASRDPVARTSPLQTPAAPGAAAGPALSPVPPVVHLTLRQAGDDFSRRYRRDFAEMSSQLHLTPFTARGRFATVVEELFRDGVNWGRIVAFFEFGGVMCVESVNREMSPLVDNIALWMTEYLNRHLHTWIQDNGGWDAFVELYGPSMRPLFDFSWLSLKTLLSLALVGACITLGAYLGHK

[9] = test system: MV4-11; assay: Antiproliferative activity against human MV4-11 cells assessed as decrease in cell viability measured after 72 hrs by MTT assay; format: functional, cell-based; details: MV4-11, 72 h
[10] = target: T2, Bcl-2-related protein A1 (Homo sapiens) (UniProt Q16548); assay: Inhibition of FITC-labeled Bak BH3 peptide binding to GST-tagged BFL1 (1 to 151 residues) (unknown origin) expressed in Escherichia coli BL21 (DE3) at 10 uM incubated for 30 mins fluorescence polarization-based competitive binding assay relative to control
T2 sequence (whole entry): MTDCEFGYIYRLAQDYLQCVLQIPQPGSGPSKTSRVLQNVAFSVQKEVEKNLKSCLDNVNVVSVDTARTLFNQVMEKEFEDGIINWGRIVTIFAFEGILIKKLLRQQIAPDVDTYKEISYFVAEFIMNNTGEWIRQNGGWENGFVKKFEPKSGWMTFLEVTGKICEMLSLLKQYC

SMILES | Ki [1] [µM] | also measured
Cc1cc(OCCCn2c(C)c(S(=O)(=O)c3cccc(O)c3)c(C)c2C(=O)O)cc(C)c1Cl | 0.15 | 
Cc1cc(OCCCn2c(C)c(S(=O)(=O)C3CCCC3)c(C)c2C(=O)O)cc(C)c1Cl | > 10 | 
Cc1cc(OCCCn2c(C)c(S(=O)(=O)c3ccc(F)cc3)c(C)c2C(=O)O)cc(C)c1Cl | 0.26 | 
Cc1ccc(S(=O)(=O)c2cn(CCCOc3cc(C)c(Cl)c(C)c3)c(C(=O)O)c2C)cc1 | 0.81 | 
Cc1ccc(Sc2c(C)c(C(=O)O)n(CCCOc3cc(C)c(Cl)c(C)c3)c2C)cc1 | 0.68 | 
Cc1ccc(Cc2cc(C(=O)O)n(CCCOc3cc(C)c(Cl)c(C)c3)c2)cc1 | 5.34 | inhibition [2]: 53%
Cc1cc(OCCCn2c(C)c(S(=O)(=O)c3ccccc3O)c(C)c2C(=O)O)cc(C)c1Cl | 0.15 | 
COc1ccccc1S(=O)(=O)c1c(C)c(C(=O)O)n(CCCOc2cc(C)c(Cl)c(C)c2)c1C | 0.43 | 
Cc1cc(OCCCn2c(C)c(S(=O)(=O)c3ccccc3Br)c(C)c2C(=O)O)cc(C)c1Cl | > 10 | 
Cc1ccc(S(=O)(=O)Nc2cc(C(=O)O)n(CCCOc3cc(C)c(Cl)c(C)c3)c2)cc1 | > 10 | 
Cc1cc(OCCCn2c(C)c(S(=O)(=O)c3cccs3)c(C)c2C(=O)O)cc(C)c1Cl | 0.08 | IC50 [3]: 3.1 µM; inhibition [4]: 37%; IC50 [5]: 0.7 µM; IC50 [6]: 5.13 µM; IC50 [7]: 11.3 µM; inhibition [8]: 7.54%; IC50 [9]: 2.3 µM
CCc1c(S(=O)(=O)c2ccc(C)cc2)c(C)c(C(=O)O)n1CCCOc1cc(C)c(Cl)c(C)c1 | 2.49 | 
COc1cccc(S(=O)(=O)c2c(C)c(C(=O)O)n(CCCOc3cc(C)c(Cl)c(C)c3)c2C)c1 | 0.2 | 
Cc1cc(OCCCn2c(C)c(S(=O)(=O)c3ccc(C(C)C)cc3)c(C)c2C(=O)O)cc(C)c1Cl | 0.17 | 
CCOc1ccc(S(=O)(=O)c2c(C)c(C(=O)O)n(CCCOc3cc(C)c(Cl)c(C)c3)c2C)cc1 | 0.14 | 
COc1ccc(S(=O)(=O)c2c(C)c(C(=O)O)n(CCCOc3cc(C)c(Cl)c(C)c3)c2C)cc1 | 0.07 | IC50 [3]: 9.72 µM; inhibition [4]: 27%; IC50 [5]: 0.39 µM; IC50 [6]: 6.27 µM; IC50 [7]: > 30 µM; inhibition [8]: 14.2%; IC50 [9]: 1.56 µM; inhibition [10]: 1.82%
Cc1cc(OCCCn2c(C)c(S(=O)(=O)c3ccc(-c4ccccc4)cc3)c(C)c2C(=O)O)cc(C)c1Cl | 0.13 | 
Cc1cc(OCCCn2c(C)c(S(=O)(=O)c3ccc(C(=O)O)cc3)c(C)c2C(=O)O)cc(C)c1Cl | 0.42 | 
Cc1cc(OCCCn2c(C)c(S(=O)(=O)C3CCCCC3)c(C)c2C(=O)O)cc(C)c1Cl | > 10 | 
Cc1cc(OCCCn2c(C)c(S(=O)(=O)c3c(C)cccc3C)c(C)c2C(=O)O)cc(C)c1Cl | > 10 | 
CCc1ccc(S(=O)(=O)c2c(C)c(C(=O)O)n(CCCOc3cc(C)c(Cl)c(C)c3)c2C)cc1 | 0.07 | IC50 [3]: 5.41 µM; inhibition [4]: 36%; IC50 [5]: 0.49 µM; IC50 [6]: 3.92 µM; IC50 [7]: > 30 µM; inhibition [8]: 12.4%; IC50 [9]: 2.59 µM; inhibition [10]: 8.77%
Cc1ccc(CNc2cc(C(=O)O)n(CCCOc3cc(C)c(Cl)c(C)c3)c2)cc1 | > 10 | 
Cc1ccc(C(=O)c2cc(C(=O)O)n(CCCOc3cc(C)c(Cl)c(C)c3)c2)cc1 | 0.7 | 
Cc1cc(OCCCn2c(C)c(S(=O)(=O)c3ccc(Cl)cc3)c(C)c2C(=O)O)cc(C)c1Cl | 0.18 | 
